This assay has as its system L1210 leukemia ip in BDF1 mice, survival T/C. Kind of assay: NCI In Vivo Anticancer Drug Screen. Data for tumor model L1210 Leukemia (intraperitoneal) in B6D2F1 (BDF1) mice. To be noted: endpoint: mean survival time, higher = longer survival. A digest of the protocol:
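Ratio derived from survival: compound-dosed mice over vehicle-dosed mice, all bearing a transplantable tumor.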

Setting [1] is: dose: 50.0 mg/kg/injection, schedule: Q01DX009 (ip), vehicle: Klucel (hydroxypropylcellulose) (HPC).
Where [2] appears, read: dose: 100.0 mg/kg/injection, schedule: Q01DX009 (ip), vehicle: Klucel (hydroxypropylcellulose) (HPC).
The mark [3] stands for this setting: dose: 200.0 mg/kg/injection, schedule: Q01DX009 (ip), vehicle: Klucel (hydroxypropylcellulose) (HPC).
[4] abbreviates: dose: 100.0 mg/kg/injection, schedule: Q01DX001 (ip), vehicle: Klucel (hydroxypropylcellulose) (HPC).
[5] abbreviates: dose: 200.0 mg/kg/injection, schedule: Q01DX001 (ip), vehicle: Klucel (hydroxypropylcellulose) (HPC).
Setting [6] is: dose: 400.0 mg/kg/injection, schedule: Q01DX001 (ip), vehicle: Klucel (hydroxypropylcellulose) (HPC).
The mark [7] stands for this setting: dose: 400.0 mg/kg/injection, schedule: Q01DX009 (ip), vehicle: Klucel (hydroxypropylcellulose) (HPC).
The mark [8] stands for this setting: dose: 100.0 mg/kg/injection, schedule: Q04DX002 (ip), vehicle: saline with Tween-80.
[9] abbreviates: dose: 200.0 mg/kg/injection, schedule: Q04DX002 (ip), vehicle: saline with Tween-80.
[10] abbreviates: dose: 400.0 mg/kg/injection, schedule: Q04DX002 (ip), vehicle: saline with Tween-80.
[11] abbreviates: dose: 100.0 mg/kg/injection, schedule: Q01DX009 (ip), vehicle: saline with Tween-80.
Setting [12] is: dose: 100.0 mg/kg/injection, schedule: Q01DX001 (ip), vehicle: saline.
[13] abbreviates: dose: 200.0 mg/kg/injection, schedule: Q01DX001 (ip), vehicle: saline.
[14] abbreviates: dose: 400.0 mg/kg/injection, schedule: Q01DX001 (ip), vehicle: saline.

Molecules are shown by their SMILES. Values joined by “and” are separate entries in the source; they are usually repeats but may differ in a detail not shown here. Equal entries are not always repeated. Toxic doses and inconclusive results are not listed.

With `O=C(O)c1ccccc1C(=O)Nc1cccc(C(F)(F)F)c1`, the T/C runs as follows: under setting [1], 101 % of control; under setting [2], 101 % of control; under setting [3], 99 % of control.

On to `Nc1nc2c(ncn2-c2cccc3ccccc23)c(=O)[nH]1`, for which the T/C runs as follows: (dose: 25.0 mg/kg/injection, schedule: Q01DX001 (ip), vehicle: saline with Tween-80) 93 % of control; (dose: 50.0 mg/kg/injection, schedule: Q01DX001 (ip), vehicle: saline with Tween-80) 119 % of control; (dose: 100.0 mg/kg/injection, schedule: Q01DX001 (ip), vehicle: saline with Tween-80) 93 % of control.

As to `COC1(NC(=O)CCCC(N)C(=O)O)C(=O)N2C(C(=O)O)=C(COC(N)=O)CSC21` (centres undefined), the T/C (dose: 100.0 mg/kg/injection, schedule: Q04DX002 (ip), vehicle: saline) was 103 % of control; the T/C (dose: 200.0 mg/kg/injection, schedule: Q04DX002 (ip), vehicle: saline) was 122 % of control; the T/C (dose: 400.0 mg/kg/injection, schedule: Q04DX002 (ip), vehicle: saline) was 107 % of control.

`COc1ccc(OC2CCCCC2OS(C)(=O)=O)cc1` (centres undefined): the T/C was 104 % of control under setting [4]; 96 % of control under setting [2]; 102 % of control (dose: 100.0 mg/kg/injection, schedule: Q04DX003 (ip), vehicle: Klucel (hydroxypropylcellulose) (HPC)); 103 % of control under setting [5]; 104 % of control under setting [3]; 102 % of control (dose: 200.0 mg/kg/injection, schedule: Q04DX003 (ip), vehicle: Klucel (hydroxypropylcellulose) (HPC)). The T/C was 108 % of control under setting [6]; 106 % of control under setting [7]; 101 % of control (dose: 400.0 mg/kg/injection, schedule: Q04DX003 (ip), vehicle: Klucel (hydroxypropylcellulose) (HPC)).

As for `CC(C)CCC[C@@H](C)[C@H]1CC[C@H]2[C@@H]3CC[C@H]4C[C@H](NC(=O)N(CCF)N=O)CC[C@]4(C)[C@H]3CC[C@]12C`, the T/C is 102 % of control (dose: 8.0 mg/kg/injection, schedule: Q01DX001 (ip), vehicle: other); 103 % of control (dose: 16.0 mg/kg/injection, schedule: Q01DX001 (ip), vehicle: other); 108 % of control (dose: 31.0 mg/kg/injection, schedule: Q01DX001 (ip), vehicle: other); 116 % of control (dose: 62.0 mg/kg/injection, schedule: Q01DX001 (ip), vehicle: other); 116 % of control (dose: 250.0 mg/kg/injection, schedule: Q01DX001 (ip), vehicle: other); 122 % of control (dose: 375.0 mg/kg/injection, schedule: Q01DX001 (ip), vehicle: other). Besides, the T/C is, setting by setting: (dose: 500.0 mg/kg/injection, schedule: Q01DX001 (ip), vehicle: other) 124 % of control; (dose: 750.0 mg/kg/injection, schedule: Q01DX001 (ip), vehicle: other) 170 % of control; (dose: 1000.0 mg/kg/injection, schedule: Q01DX001 (ip), vehicle: other) 153 % of control; (dose: 1500.0 mg/kg/injection, schedule: Q01DX001 (ip), vehicle: other) 188 % of control; (dose: 2000.0 mg/kg/injection, schedule: Q01DX001 (ip), vehicle: other) 202 % of control; (dose: 2500.0 mg/kg/injection, schedule: Q01DX001 (ip), vehicle: other) 252 % of control.

As for `Oc1ccc2ccccc2c1/C=C1/C=Nc2ccccc21`, the T/C runs as follows: under setting [8], 88 % of control; under setting [9], 88 % of control; under setting [10], 103 % of control.

As to `COc1cc(NC(C)=O)c2ncccc2c1`, the T/C is, setting by setting: under setting [11], 99 % of control; (dose: 200.0 mg/kg/injection, schedule: Q01DX009 (ip), vehicle: saline with Tween-80) 106 % of control.

On to `COC1OC2COC(c3ccccc3)OC2C(OS(=O)(=O)c2ccc(C)cc2)C1OC` (centres undefined), for which the T/C under setting [8] was 107 % of control, the T/C under setting [9] is 89 % of control and the T/C under setting [10] is 93 % of control.

With `COC(=O)c1c2c(c3c(c1C(=O)OC)CCC3)CCC2`, the T/C is 98 % of control under setting [12], 95 % of control under setting [13] and 92 % of control under setting [14].

Regarding `CNC(=O)Nc1cccc(C(=O)O)c1`, the T/C is 98 % of control under setting [2], 103 % of control under setting [3] and 92 % of control under setting [7].

Regarding `Nc1cc2c3ccccc3ccc2c2ccccc12`, the T/C is, setting by setting: (dose: 67.0 mg/kg/injection, schedule: Q01DX009 (ip), vehicle: saline with Tween-80) 105 % of control; under setting [11], 105 % of control; (dose: 150.0 mg/kg/injection, schedule: Q01DX009 (ip), vehicle: saline with Tween-80) 96 % of control; (dose: 225.0 mg/kg/injection, schedule: Q01DX009 (ip), vehicle: saline with Tween-80) 97 % of control.

As for `ClCC1=NCCN1`, the T/C by setting is: (dose: 12.5 mg/kg/injection, schedule: Q04DX002 (ip), vehicle: Klucel (hydroxypropylcellulose) (HPC)) 97 % of control; (dose: 25.0 mg/kg/injection, schedule: Q04DX002 (ip), vehicle: Klucel (hydroxypropylcellulose) (HPC)) 97 % of control; (dose: 50.0 mg/kg/injection, schedule: Q04DX002 (ip), vehicle: Klucel (hydroxypropylcellulose) (HPC)) 97 % of control.

For the compound `O=[N+]([O-])c1cccc2nc(N/N=C/c3ccccc3O)ccc12`, the T/C is, setting by setting: (dose: 25.0 mg/kg/injection, schedule: Q01DX009 (ip), vehicle: water) 89 % of control; (dose: 50.0 mg/kg/injection, schedule: Q01DX009 (ip), vehicle: water) 94 % of control; (dose: 200.0 mg/kg/injection, schedule: Q01DX009 (ip), vehicle: water) 94 % of control; (dose: 400.0 mg/kg/injection, schedule: Q01DX009 (ip), vehicle: water) 93 % of control.

Take `COC(=O)c1ccccc1NCCO`: the T/C under setting [12] was 101 % of control, the T/C under setting [13] was 107 % of control and the T/C under setting [14] is 101 % of control.

Regarding `CNC(=O)N(C)Cc1ccccc1`, the T/C (dose: 100.0 mg/kg/injection, schedule: Q01DX009 (ip), vehicle: saline) is 107 % of control; the T/C (dose: 100.0 mg/kg/injection, schedule: Q04DX003 (ip), vehicle: saline with Tween-80) is 104 % of control; the T/C (dose: 200.0 mg/kg/injection, schedule: Q01DX009 (ip), vehicle: saline) is 115 % of control; the T/C (dose: 200.0 mg/kg/injection, schedule: Q04DX003 (ip), vehicle: saline with Tween-80) was 93 % of control; the T/C (dose: 400.0 mg/kg/injection, schedule: Q01DX009 (ip), vehicle: saline) was 117 % of control; the T/C (dose: 400.0 mg/kg/injection, schedule: Q04DX003 (ip), vehicle: saline with Tween-80) is 104 % of control.

Take `CC(C(=O)O)(c1ccccc1)c1ccccc1`: the T/C was 101 % of control (dose: 100.0 mg/kg/injection, schedule: Q04DX002 (ip), vehicle: gum acacia); 96 % of control (dose: 200.0 mg/kg/injection, schedule: Q04DX002 (ip), vehicle: gum acacia); 96 % of control (dose: 400.0 mg/kg/injection, schedule: Q04DX002 (ip), vehicle: gum acacia).

With `NC(C(=O)O)c1ccccc1Cl` (centres undefined), the T/C is, setting by setting: under setting [1], 95 % of control; under setting [4], 92 % of control; under setting [2], 101 % of control; under setting [5], 102 % of control; under setting [3], 107 % of control; under setting [6], 91 % of control.

Consider `COc1ccc(C)cc1NC(=O)Nc1cc([N+](=O)[O-])ccc1C`, for which the T/C is, setting by setting: under setting [2], 93 % of control; under setting [3], 98 % of control; under setting [7], 102 % of control.

On to `CSC(C#N)S(C)(=O)=O` (centres undefined), for which the T/C is, setting by setting: (dose: 25.0 mg/kg/injection, schedule: Q01DX001 (ip), vehicle: Klucel (hydroxypropylcellulose) (HPC)) 109 % of control; (dose: 50.0 mg/kg/injection, schedule: Q01DX001 (ip), vehicle: Klucel (hydroxypropylcellulose) (HPC)) 100 % of control; under setting [4], 103 % of control and 108 % of control.

For the origin of these results see PubChem BioAssay AID248 (DTP/NCI, 2004).
